These results are taken from patent US20220047545A1 (priority 2020, published 2022).

Chain of hACE2 (Q9BYF1 18-805): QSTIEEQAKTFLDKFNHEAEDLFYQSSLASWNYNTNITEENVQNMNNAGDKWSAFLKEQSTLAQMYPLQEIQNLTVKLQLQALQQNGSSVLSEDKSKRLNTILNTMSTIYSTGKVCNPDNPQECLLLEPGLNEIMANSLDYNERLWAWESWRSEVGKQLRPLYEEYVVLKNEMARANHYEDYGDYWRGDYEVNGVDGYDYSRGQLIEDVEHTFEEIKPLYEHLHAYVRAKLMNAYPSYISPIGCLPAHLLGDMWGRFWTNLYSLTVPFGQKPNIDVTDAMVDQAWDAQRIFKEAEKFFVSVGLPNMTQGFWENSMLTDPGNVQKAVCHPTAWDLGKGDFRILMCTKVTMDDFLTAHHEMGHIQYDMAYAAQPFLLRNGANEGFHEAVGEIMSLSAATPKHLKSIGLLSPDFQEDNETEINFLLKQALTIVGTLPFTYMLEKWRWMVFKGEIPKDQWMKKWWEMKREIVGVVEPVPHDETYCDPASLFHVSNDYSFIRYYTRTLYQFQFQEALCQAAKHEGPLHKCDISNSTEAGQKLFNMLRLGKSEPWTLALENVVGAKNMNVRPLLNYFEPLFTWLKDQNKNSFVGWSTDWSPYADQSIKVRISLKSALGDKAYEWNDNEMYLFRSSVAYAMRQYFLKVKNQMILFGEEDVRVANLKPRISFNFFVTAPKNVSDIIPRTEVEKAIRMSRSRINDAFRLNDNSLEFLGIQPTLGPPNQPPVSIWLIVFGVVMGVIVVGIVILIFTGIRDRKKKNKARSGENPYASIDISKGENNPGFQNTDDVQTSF

In the first assay the target is RBD of SARS-CoV-2 spike protein binding to hACE2 receptor (Severe acute respiratory syndrome coronavirus 2, UniProt P0DTC2).
Details: not given
For `O=c1c(O)c(-c2ccc(O)c(O)c2)oc2cc(O)ccc12` [Fisetin], the “Binding with RBD (% of control ± SD)” value was 22.4 ± 1.9 % of control.
For the compound `COc1cc2c(cc1OC)-c1cc3ccc(OC)c(OC)c3c[n+]1CC2` [Palmatine], the “Binding with RBD (% of control ± SD)” value is 40.4 ± 6.1 % of control.
The same measure, in the same setting: then `O=c1oc2cc(O)ccc2c2ccc(O)cc12` [Urolithin A], with 31.1 ± 4.6 % of control.
For `COc1ccc([C@@H]2CC(=O)c3c(O)cc(O[C@@H]4O[C@H](CO[C@@H]5O[C@@H](C)[C@H](O)[C@@H](O)[C@H]5O)[C@@H](O)[C@H](O)[C@H]4O)cc3O2)cc1O` [Hesperidin], the “Binding with RBD (% of control ± SD)” value was 90.3 ± 3.8 % of control and the “enhancement of blocking the RBD binding by Formula 1 when micronutrient tested individually” value (from here on “enhancement of blocking the RBD binding”) is listed as “only minimal enhancement”.
Regarding (−)-gallocatechin gallate, the “Binding with RBD (% of control ± SD)” value is on record as 75.4 ± 5.6 % of control.
Take `O=C(O)[C@H]1O[C@@H](Oc2cc3oc(-c4ccccc4)cc(=O)c3c(O)c2O)[C@H](O)[C@@H](O)[C@@H]1O` [Baicalin]: the “Binding with RBD (% of control ± SD)” value is 10.3 ± 2.9 % of control and the “enhancement of blocking the RBD binding” value is listed as “only minimal enhancement”.
In the case of `COc1c(O)cc2oc(-c3ccc(O)cc3)cc(=O)c2c1O` [Hispidulin], the “Binding with RBD (% of control ± SD)” value is on record as 20.1 ± 6.0 % of control.
Still for that read-out and setting: then `CC(C)c1cc2c(c(O)c1O)[C@@]1(C(=O)O)CCCC(C)(C)[C@@H]1CC2` [Carnosic acid], with 27.1 ± 5.1 % of control; and `CC(=O)c1c(O)c(C)c(O)c2c1OC1=CC(=O)C(C(C)=O)C(=O)C12C` (centres unmarked) [Usnic acid], with 22.0 ± 3.4 % of control.
On the same count and under the same terms, the same measure for `O=C(/C=C/c1ccc(O)c(O)c1)O[C@H](Cc1ccc(O)c(O)c1)C(=O)O` [Rosmarinic acid]: 22.5 ± 3.8 % of control; for `COc1ccc([C@@H]2CC(=O)c3c(O)cc(O)cc3O2)cc1O` [Hesperetin]: 42.5 ± 4.6 % of control.
Turning to `O=C(/C=C/c1ccc(O)c(O)c1)O[C@@H]1C[C@](O)(C(=O)O)C[C@@H](O)[C@H]1O` [Chlorogenic acid], the “Binding with RBD (% of control ± SD)” value was 25.5 ± 2.5 % of control.
On the same count and under the same terms, the same measure for `O=C(O[C@@H]1Cc2c(O)cc(O)cc2O[C@H]1c1ccc(O)c(O)c1)c1cc(O)c(O)c(O)c1` [(−)-catechin gallate]: 37.4 ± 4.7 % of control; for `O[C@H]1[C@H](O)[C@@H](O)CN2CC[C@H](O)[C@H]12` [Castanospermine]: 8.2 ± 2.3 % of control; for `O=c1c(-c2ccc(O)cc2)coc2cc(O)cc(O)c12` [Genistein]: 22.1 ± 2.8 % of control.
The same measure, in the same setting: the same measure for `C=C1CC[C@@H]2[C@](C)(CO)[C@H](O)CC[C@@]2(C)[C@@H]1C/C=C1/C(=O)OC[C@H]1O` [Andrographolide]: 22.1 ± 2.5 % of control.
Still for that read-out and setting: the same measure for `Oc1ccc(/C=C/c2cc(O)cc(O)c2)cc1` [Trans-resveratrol]: 22.3 ± 2.9 % of control; for `O=C(O)c1cc(O)c(O)c(O)c1` [Gallic acid]: 18.3 ± 4.5 % of control; for `Oc1cc(O)c2c(c1)O[C@H](c1ccc(O)c(O)c1)[C@H](O)[C@H]2c1c(O)cc(O)c2c1O[C@H](c1ccc(O)c(O)c1)[C@H](O)C2` [Procyanidin B2]: 31.1 ± 3.6 % of control.
Turning to `O=c1c(O)c(-c2ccc(O)cc2O)oc2cc(O)cc(O)c12` [Morin], the “Binding with RBD (% of control ± SD)” value is on record as 30.5 ± 5.8 % of control.
For the compound `O=c1c(O)c(-c2ccc(O)cc2)oc2cc(O)cc(O)c12` [Kaemferol], the “Binding with RBD (% of control ± SD)” value was 15.6 ± 2.9 % of control.
The same measure, in the same setting: the same measure for `C=C(C)[C@@H]1CCC(C)=C[C@H]1c1c(O)cc(CCCCC)cc1O` [Cannabidiol, reference compound]: 1.4 ± 0.3 % of control; for `O=C(OC[C@H]1O[C@@H](OC(=O)c2cc(O)c(O)c(OC(=O)c3cc(O)c(O)c(O)c3)c2)[C@H](OC(=O)c2cc(O)c(O)c(OC(=O)c3cc(O)c(O)c(O)c3)c2)[C@@H](OC(=O)c2cc(O)c(O)c(OC(=O)c3cc(O)c(O)c(O)c3)c2)[C@@H]1OC(=O)c1cc(O)c(O)c(OC(=O)c2cc(O)c(O)c(O)c2)c1)c1cc(O)c(O)c(OC(=O)c2cc(O)c(O)c(O)c2)c1` [Tannic acid]: 79.4 ± 2.3 % of control; for `O=C1O[C@H]2[C@@H]3OC(=O)c4cc(O)c(O)c(O)c4-c4c(O)c(O)c5oc(=O)c6c(c(O)c(O)c7oc(=O)c4c5c76)-c4c(cc(O)c(O)c4O)C(=O)OC[C@H]3OC(O)[C@@H]2OC(=O)c2cc(O)c(O)c(O)c2-c2c1cc(O)c(O)c2O` (mixture of isomers) [Punicalagin]: 32.3 ± 5.9 % of control.
Still for that read-out and setting: the same measure for `O=c1c(O)c(-c2ccc(O)c(O)c2)oc2cc(O)cc(O)c12` [Quercetin]: 22.4 ± 6.5 % of control.
Still for that read-out and setting: then `O=c1c(O)cc([C@H]2Oc3cc(O)cc(O)c3C[C@H]2O)cc2c([C@H]3Oc4cc(O)cc(O)c4C[C@H]3O)cc(O)c(O)c12` [Theaflavin], with 27.3 ± 1.4 % of control; and `Oc1cc(O)c2c(c1)O[C@H](c1ccc(O)c(O)c1)[C@@H](O)[C@@H]2c1c(O)cc(O)c2c1O[C@H](c1ccc(O)c(O)c1)[C@@H](O)C2` [Procyanidin B3], with 32.3 ± 3.7 % of control; and `O=C(O)CC(O)C(=O)O` (centres unmarked) [Malic acid], with 1.2 ± 3.7 % of control.
For the compound `C[C@@H]1O[C@@H](OC[C@H]2O[C@@H](Oc3c(-c4ccc(O)c(O)c4)oc4cc(O)cc(O)c4c3=O)[C@H](O)[C@@H](O)[C@@H]2O)[C@H](O)[C@H](O)[C@H]1O` [Rutin], the “Binding with RBD (% of control ± SD)” value is recorded as 20.6 ± 6.3 % of control.
On to `O=C1C[C@@H](c2ccc(O)cc2)Oc2cc(O)cc(O)c21` [Naringenin], for which the “Binding with RBD (% of control ± SD)” value is recorded as 20 ± 5.1 % of control.
As to `O=c1cc(-c2ccc(O)c(O)c2)oc2cc(O)cc(O)c12` [Luteolin], the “Binding with RBD (% of control ± SD)” value is 10.4 ± 4.7 % of control and the “enhancement of blocking the RBD binding” value is “only minimal enhancement”.
`C[C@@H]1O[C@@H](O[C@H]2[C@H](Oc3cc(O)c4c(c3)O[C@H](c3ccc(O)cc3)CC4=O)O[C@H](CO)[C@@H](O)[C@@H]2O)[C@H](O)[C@H](O)[C@H]1O` [Naringin]: the “Binding with RBD (% of control ± SD)” value is 23.6 ± 6.4 % of control.
Consider `COc1cc(/C=C/c2ccc(O)cc2)cc(OC)c1` [Pterostillbene], for which the “Binding with RBD (% of control ± SD)” value is 23.1 ± 2.8 % of control.
Still for that read-out and setting: the same measure for `COc1ccc2cc3[n+](cc2c1OC)CCc1cc2c(cc1-3)OCO2` [Berberine]: 17.3 ± 2.7 % of control; for `COc1ccc(Cc2nccc3cc(OC)c(OC)cc23)cc1OC` [Papaverine, reference compound]: 1.6 ± 0.2 % of control.
The same measure, in the same setting: then `Oc1cc(O)c2c(c1)O[C@@H](c1cc(O)c(O)c(O)c1)[C@H](O)C2` [(−)-gallocatechin], with 73.5 ± 6.7 % of control.
The same measure, in the same setting: the same measure for `O=c1cc(-c2ccc(O)cc2)oc2cc(O)cc(O)c12` [Apigenin]: 17.1 ± 4.1 % of control; for `O=c1cc(-c2ccccc2)oc2cc(O)c(O)c(O)c12` [Baicalein]: 22.5 ± 5.1 % of control.
Consider `C=C(C)[C@H]1CC=C(C)CC1` [D-limonene], for which the “Binding with RBD (% of control ± SD)” value was 27.2 ± 6.4 % of control.
`O=C(O)[C@H]1O[C@@H](Oc2cc3oc(-c4ccc(O)cc4)cc(=O)c3c(O)c2O)[C@H](O)[C@@H](O)[C@@H]1O` [Scutellarin]: the “Binding with RBD (% of control ± SD)” value is 8.1 ± 3.7 % of control.
Turning to `C[S+]([O-])CCCCN=C=S` [L-sulforaphane], the “Binding with RBD (% of control ± SD)” value is 30.2 ± 3.6 % of control.
The same measure, in the same setting: then `Oc1cc(O)cc(O)c1` [Phloroglucinol], with 69.5 ± 3.6 % of control.
In the case of `Oc1cc(O)c2c(c1)O[C@H](c1cc(O)c(O)c(O)c1)[C@@H](O)C2` [(+)-gallocatechin], the “Binding with RBD (% of control ± SD)” value is reported as 69.5 ± 2.8 % of control.
The same measure, in the same setting: then `O=c1c(O)c(-c2cc(O)c(O)c(O)c2)oc2cc(O)cc(O)c12` [Myricetin], with 45.5 ± 5.4 % of control; and `O=C(OC1Cc2c(O)cc(O)cc2OC1c1cc(O)c(O)c(O)c1)c1cc(O)c(O)c(O)c1` (single isomer, unassigned; (+)) [(+)-epigallocatechin gallate], with 87.5 ± 6.8 % of control.

A further assay addresses hACE2 (Homo sapiens, UniProt Q9BYF1). To be noted: literature computational study (Jena et al.); cited from earlier work.
With catechin [cathechin], the “binding energy to hACE2” value was -7.8 kcal/mol.

The next assay deals with RBD of SARS-CoV-2 spike protein (Severe acute respiratory syndrome coronavirus 2, UniProt P0DTC2). Particulars: literature computational study; cited from earlier work.
With catechin [cathechin], the “binding energy ΔG to RBD / viral spike protein” value was -7.9 kcal/mol.
